Assay: xn = mol fraction of the nth substance listed
Details: Liquid, Vibrating tube method

CC(C)OC(C)C [diisopropyl ether] + CCC(C)O
mass density [kg/m3]
Details | x2 = 0 | x2 = 0.2036 | x2 = 0.3227 | x2 = 0.4464 | x2 = 0.4973 | x2 = 0.6595 | x2 = 0.8482
293.15 K, 100 kPa | 723.5 | 737.9 | 746.6 | 756.1 | – | 774.1 | 791.8
293.15 K, 1000 kPa | 724.6 | 739 | 747.6 | 757 | 761.1 | 774.9 | 792.6
293.15 K, 5000 kPa | 729.4 | 743.4 | 751.8 | 761.1 | 765 | 778.5 | 795.9
293.15 K, 10000 kPa | 734.9 | 748.6 | 756.8 | 765.7 | 769.6 | 782.9 | 799.8
293.15 K, 15000 kPa | 740 | 753.3 | 761.4 | 770.2 | 774 | 786.9 | 803.5
293.15 K, 20000 kPa | 744.8 | 757.9 | 765.7 | 774.3 | 778.1 | 790.8 | 807.1
293.15 K, 25000 kPa | 749.4 | 762.2 | 769.9 | 778.3 | 782 | 794.5 | 810.4
293.15 K, 30000 kPa | 753.7 | 766.2 | 773.8 | 782.2 | 785.7 | 798 | 813.7
293.15 K, 35000 kPa | 757.7 | 770.1 | 777.6 | 785.7 | 789.3 | 801.3 | 816.8
293.15 K, 40000 kPa | 761.6 | 773.8 | 781.1 | 789.2 | 792.7 | 804.5 | 819.8
293.15 K, 45000 kPa | 765.3 | 777.3 | 784.6 | 792.5 | 796 | 807.7 | 822.7
293.15 K, 50000 kPa | 768.9 | 780.7 | 787.9 | 795.7 | 799.1 | 810.7 | 825.5
293.15 K, 55000 kPa | 772.4 | 784 | 791.1 | 798.8 | 802.2 | 813.6 | 828.3
293.15 K, 60000 kPa | 775.7 | 787.1 | 794.2 | 801.8 | 805.2 | 816.4 | 830.9
293.15 K, 65000 kPa | 778.9 | 790.3 | 797.2 | 804.8 | 808.1 | 819.2 | 833.5
293.15 K, 70000 kPa | 782 | 793.2 | 800.1 | 807.5 | 810.8 | 821.8 | 836
293.15 K, 80000 kPa | 787.9 | 798.9 | 805.6 | 812.9 | 816.2 | 826.9 | 840.8
293.15 K, 90000 kPa | 793.5 | 804.4 | 810.9 | 818.1 | 821.3 | 831.9 | 845.5
293.15 K, 100000 kPa | 798.8 | 809.3 | 815.9 | 822.9 | 826 | 836.4 | 849.8
293.15 K, 110000 kPa | 803.9 | 814.2 | 820.7 | 827.6 | 830.7 | 840.9 | 854.1
293.15 K, 120000 kPa | 808.7 | 818.9 | 825.2 | 832.1 | 835.1 | 845.2 | 858.2
293.15 K, 130000 kPa | 813.2 | 823.4 | 829.6 | 836.4 | 839.3 | 849.3 | 862.1
293.15 K, 140000 kPa | 817.6 | 827.6 | 833.7 | 840.4 | 843.3 | 853.2 | 865.8
298.15 K, 100 kPa | 718.3 | 732.9 | 741.7 | 751.2 | 755.4 | 769.4 | 787.5
298.15 K, 1000 kPa | 719.6 | 734 | 742.8 | 752.2 | 756.4 | 770.3 | 788.3
298.15 K, 5000 kPa | 724.5 | 738.6 | 747.1 | 756.3 | 760.5 | 774.1 | 791.7
298.15 K, 10000 kPa | 730.2 | 743.9 | 752.2 | 761.2 | 765.2 | 778.5 | 795.7
298.15 K, 15000 kPa | 735.6 | 748.8 | 757 | 765.8 | 769.7 | 782.8 | 799.6
298.15 K, 20000 kPa | 740.5 | 753.5 | 761.5 | 770.1 | 773.9 | 786.7 | 803.2
298.15 K, 25000 kPa | 745.2 | 757.9 | 765.7 | 774.2 | 777.9 | 790.5 | 806.6
298.15 K, 30000 kPa | 749.6 | 762.1 | 769.8 | 778.1 | 781.8 | 794.1 | 810
298.15 K, 35000 kPa | 753.7 | 766 | 773.6 | 781.7 | 785.4 | 797.5 | 813.1
298.15 K, 40000 kPa | 757.8 | 769.8 | 777.3 | 785.3 | 788.9 | 800.8 | 816.2
298.15 K, 45000 kPa | 761.6 | 773.4 | 780.8 | 788.7 | 792.2 | 804.1 | 819.2
298.15 K, 50000 kPa | 765.2 | 776.9 | 784.2 | 792 | 795.5 | 807.1 | 822.1
298.15 K, 55000 kPa | 768.8 | 780.3 | 787.5 | 795.2 | 798.6 | 810.1 | 824.9
298.15 K, 60000 kPa | 772.2 | 783.5 | 790.6 | 798.2 | 801.6 | 812.9 | 827.6
298.15 K, 65000 kPa | 775.4 | 786.6 | 793.7 | 801.2 | 804.5 | 815.7 | 830.2
298.15 K, 70000 kPa | 778.6 | 789.7 | 796.6 | 804.1 | 807.4 | 818.5 | 832.8
298.15 K, 80000 kPa | 784.6 | 795.5 | 802.3 | 809.6 | 812.8 | 823.7 | 837.7
298.15 K, 90000 kPa | 790.3 | 801 | 807.7 | 814.9 | 818 | 828.7 | 842.4
298.15 K, 100000 kPa | 795.7 | 806.1 | 812.7 | 819.8 | 822.9 | 833.3 | 846.9
298.15 K, 110000 kPa | 800.8 | 811.1 | 817.6 | 824.5 | 827.5 | 837.9 | 851.2
298.15 K, 120000 kPa | 805.6 | 815.8 | 822.1 | 829 | 832 | 842.1 | 855.3
298.15 K, 130000 kPa | 810.3 | 820.3 | 826.5 | 833.3 | 836.3 | 846.3 | 859.2
298.15 K, 140000 kPa | 814.6 | 824.6 | 830.9 | 837.5 | 840.4 | 850.3 | 863.1
313.15 K, 100 kPa | 702.4 | 717.2 | 726.3 | 736.2 | 740.5 | 755.1 | 773.8
313.15 K, 1000 kPa | 703.8 | 718.4 | 727.5 | 737.3 | 741.6 | 756.1 | 774.7
313.15 K, 5000 kPa | 709.4 | 723.5 | 732.4 | 741.9 | 746.1 | 760.2 | 778.4
313.15 K, 10000 kPa | 715.8 | 729.6 | 738.2 | 747.4 | 751.5 | 765.2 | 782.9
313.15 K, 15000 kPa | 721.7 | 735 | 743.4 | 752.4 | 756.4 | 769.8 | 787.1
313.15 K, 20000 kPa | 727.2 | 740.2 | 748.4 | 757.1 | 761 | 774.1 | 791.1
313.15 K, 25000 kPa | 732.1 | 744.8 | 752.8 | 761.4 | 765.2 | 778 | 794.6
313.15 K, 30000 kPa | 737.1 | 749.5 | 757.4 | 765.8 | 769.6 | 782.1 | 798.4
313.15 K, 35000 kPa | 741.6 | 753.8 | 761.5 | 769.8 | 773.5 | 785.8 | 801.8
313.15 K, 40000 kPa | 745.9 | 757.8 | 765.4 | 773.6 | 777.2 | 789.3 | 805.1
313.15 K, 45000 kPa | 750 | 761.7 | 769.2 | 777.2 | 780.8 | 792.8 | 808.3
313.15 K, 50000 kPa | 753.9 | 765.5 | 772.9 | 780.8 | 784.3 | 796.1 | 811.4
313.15 K, 55000 kPa | 757.7 | 769.1 | 776.4 | 784.2 | 787.7 | 799.3 | 814.4
313.15 K, 60000 kPa | 761.3 | 772.7 | 779.8 | 787.4 | 790.9 | 802.3 | 817.3
313.15 K, 65000 kPa | 764.8 | 776 | 783.1 | 790.7 | 794.1 | 805.4 | 820.1
313.15 K, 70000 kPa | 768.1 | 779.1 | 786.1 | 793.7 | 797 | 808.2 | 822.8
313.15 K, 80000 kPa | 774.4 | 785.2 | 792.1 | 799.4 | 802.7 | 813.7 | 827.9
313.15 K, 90000 kPa | 780.5 | 791 | 797.8 | 805 | 808.2 | 818.9 | 832.9
313.15 K, 100000 kPa | 786.1 | 796.5 | 803.1 | 810.1 | 813.4 | 823.9 | 837.6
313.15 K, 110000 kPa | 791.4 | 801.7 | 808.2 | 815.1 | 818.3 | 828.6 | 842.1
313.15 K, 120000 kPa | 796.5 | 806.5 | 813 | 819.8 | 822.9 | 833 | 846.4
313.15 K, 130000 kPa | 801.4 | 811.3 | 817.7 | 824.4 | 827.4 | 837.4 | 850.5
313.15 K, 140000 kPa | 806 | 815.8 | 822 | 828.7 | 831.7 | 841.6 | 854.5
333.15 K, 100 kPa | 680.5 | 695.4 | 704.8 | 715.1 | 719.6 | 734.7 | 754.2
333.15 K, 1000 kPa | 682.1 | 696.9 | 706.3 | 716.4 | 720.9 | 735.9 | 755.4
333.15 K, 5000 kPa | 688.9 | 703 | 712.1 | 721.9 | 726.3 | 740.8 | 759.7
333.15 K, 10000 kPa | 696.4 | 709.9 | 718.7 | 728.2 | 732.4 | 746.5 | 764.8
333.15 K, 15000 kPa | 703.2 | 716.4 | 724.8 | 734 | 738.1 | 751.8 | 769.6
333.15 K, 20000 kPa | 709.4 | 722.2 | 730.4 | 739.3 | 743.4 | 756.7 | 774.1
333.15 K, 25000 kPa | 715.1 | 727.6 | 735.7 | 744.4 | 748.3 | 761.3 | 778.2
333.15 K, 30000 kPa | 720.5 | 732.7 | 740.5 | 749.1 | 752.9 | 765.7 | 782.3
333.15 K, 35000 kPa | 725.6 | 737.5 | 745.2 | 753.6 | 757.3 | 769.8 | 786.2
333.15 K, 40000 kPa | 730.3 | 742 | 749.6 | 757.8 | 761.5 | 773.7 | 789.8
333.15 K, 45000 kPa | 734.8 | 746.3 | 753.7 | – | – | – | –

Source: the NIST ThermoML archive (doi:10.1016/j.jct.2016.10.009)
